Measurements published in article PMC12169663, “Deciphering the Tumor Uptake of Heterobivalent (SST2/Albumin) [^64Cu]Cu-NODAGA-cLAB-TATEs” (Journal of Medicinal Chemistry, 2025).

Assays:
intact AR42J cells = test system: intact AR42J cells; design: method as in not given; settings: nonlabeled ligands, ref not given; cited from earlier work
[1] = test system: SST2-transfected HTC116 cells; design: method as in not given; settings: nonlabeled ligands, ref not given; cited from earlier work
[2] = target: human serum albumin (HSA) (Homo sapiens, UniProt P02768)
human serum albumin (HSA), sequence (P02768 25-609): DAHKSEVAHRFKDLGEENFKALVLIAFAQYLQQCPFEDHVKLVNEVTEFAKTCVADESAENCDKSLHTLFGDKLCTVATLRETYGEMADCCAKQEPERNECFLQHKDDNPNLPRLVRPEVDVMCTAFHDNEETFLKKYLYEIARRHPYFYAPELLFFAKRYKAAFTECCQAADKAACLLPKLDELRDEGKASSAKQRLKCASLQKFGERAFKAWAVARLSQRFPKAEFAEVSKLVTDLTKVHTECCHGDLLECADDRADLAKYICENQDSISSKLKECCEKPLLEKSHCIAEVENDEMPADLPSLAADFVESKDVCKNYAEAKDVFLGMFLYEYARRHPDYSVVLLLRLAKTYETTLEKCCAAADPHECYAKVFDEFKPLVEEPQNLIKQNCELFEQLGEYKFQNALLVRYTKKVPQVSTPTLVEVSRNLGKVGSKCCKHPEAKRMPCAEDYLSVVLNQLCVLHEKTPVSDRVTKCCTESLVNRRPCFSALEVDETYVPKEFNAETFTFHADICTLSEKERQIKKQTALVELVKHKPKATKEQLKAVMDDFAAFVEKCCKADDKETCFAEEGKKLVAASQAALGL
Description: The ultrafiltration assay used to quantify the binding of the ^64Cu-labeled peptides to HSA was performed as previously described for NODAGA-cLAB-TATEs. , Briefly, a constant activity amount of the radioligands (10–15 MBq) were mixed with different HSA concentrations (200 nM–1.4 mM). Aliquots were loaded into the ultrafiltration devices (4104 centrifugal filter units by Millipore; 30 000 Da nominal molecular weight limit, methylcellulose micropartition membranes) and centrifuged. After centrifugation, aliquots from the top and bottom fractions were measured in a γ-counter (PerkinElmer, Wizard^2 2480 automatic gamma counter). The retained fraction was calculated as a quotient of these measurements. The dissociation constant, K d, was calculated using the Morrison equation.

in vivo = settings: female, NMRI-nu/nu (Rj:NMRI-Foxn1nu/nu), mouse, iv, total radioactivity
Description: The biodistribution of [ ^ 64 Cu]­Cu-NODAGA-cLAB­(5/6)-TATE, [ ^ 64 Cu]­Cu-NODAGA-cLAB4- scr TATE, and [ ^ 64 Cu]­Cu-DOTA-EB-TATE was assessed in a subcutaneous MPC tumor allograft model via small-animal PET imaging (Figure A–D). The time-activity curves (TACs) for tumor, kidneys, and heart are shown in Figure A–D (for TACs of muscle and liver, see Figure S6) and the calculated areas under curves (AUC0–48h) and tumor-to-tissue ratios are graphically summarized in Figure E,F, respectively.
(A–D) Time-activity curves (SUV, decay-corrected, as a function of time up to 48 h) obtained by PET acquisition are depicted (0–2 h in dynamic mode and time points 5, 24, and 48 h p.i.; the x-axes are segmented accordingly). Data shown are mean values (±SD) of a group of MPC tumor-bearing NMRI-nu/nu mice (n = 2, but for cLAB6-TATE n = 4). […] (E) Calculated AUC0–48h values. Data shown are mean values (±SD). (F) Tumor/organ ratios based in the AUC0–48h values.
A number of 4 × 10^6 MPC cells were resuspended in 40 μL of Dulbecco’s phosphate-buffered saline and injected subcutaneously into the shoulder of 7–10-week-old female nude mice (Rj:NMRI-Foxn1^nu/nu, Janvier Laboratories, Le Genest-Saint-Isle, France). General anesthesia was induced and maintained with inhalation of 10% (v/v) desflurane in 30% oxygen/air (v/v). Tumor growth was monitored using caliper measurements. Animals were sacrificed using CO2 inhalation and cervical dislocation. When diameters of MPC tumors reached 8 ± 3 mm (volumes of 65–282 mm^3), small-animal positron emission tomography (PET) was performed using the nanoScan PET/CT (Mediso Medical Imaging Systems, Budapest, Hungary) and Si78 PET/CT (BRUKER, Billerica, MA) instruments. Scanners were cross-calibrated using a syringe source containing 10 MBq of [^64Cu]­CuCl2 diluted in 2 mL of 0.01 M HCl. Each mouse (n = 2) received between 7 and 10 MBq of the respective radioligand (A m = 40 GBq/μmoL) delivered in 0.154 M NaCl via intravenous injection through a tail vein catheter within the initial 30 s after scan start. […] Standardized uptake values (SUV = [MBq detected activity/mL tissue]/[MBq injected activity/g body weight]) were determined in defined volumes of interest (VOIs) and reported as VOI-averaged SUVmean ± range [min–max]. Assuming a density of 1 g/mL for body tissues, the SUVs become dimensionless.

Row | Compound | IC50 (intact AR42J cells) | IC50 [1] | Kd [2] | SUV at 24 h (in vivo) | SUV at 48 h (in vivo) | SUV at 72 h (in vivo) | logD
1 | DOTA-TATE | 3.46 nM | 10.2 nM |  |  |  |  | 
2 | Cc1cc(-c2ccc(NC(=O)[C@H](CCCCNC(=O)CCN3C(=O)CC(SCCC(=O)N[C@H](Cc4ccccc4)C(=O)N[C@H]4CSSC[C@@H](C(=O)N[C@H](C(=O)O)[C@@H](C)O)NC(=O)[C@H]([C@@H](C)O)NC(=O)[C@H](CCCCN)NC(=O)[C@@H](Cc5c[nH]c6ccccc56)NC(=O)[C@H](Cc5ccc(O)cc5)NC4=O)C3=O)NC(=O)CN3CCN(CC(=O)O)CCN(CC(=O)O)CCN(CC(=O)O)CC3)c(C)c2)ccc1/N=N/c1ccc2c(S(=O)(=O)O)cc(S(=O)(=O)O)c(N)c2c1O (stereo partly shown) [[64Cu]Cu-DOTA-EB-TATE, metal not drawn] |  |  | 1200 nM | 6 SUV | 5.6 SUV | 5.6 SUV | -2.26
